Data published in patent publication US20250352514A1, “SALT FORMS OF BIS(3-(2-(DIMETHYLAMINO)ETHYL)-1 H-INDOL-4-YL) 3,3'¬OXYDIPROPIONATE” (priority 2024, published 2025).

Experiment: Initial polymorphism assessment by slurrying in 12 solvents at room temperature, XRPD
Assay type: physicochemical
Conditions: shaken at room temperature 3-4 days
From the text: The vials were capped, sealed with Parafilm®, and then covered with foil. The experiments were shaken at room temperature for 4 days. After 4 days all the experiments had remained as slurries apart from the experiment in water. Portions of solid were removed from each one and analyzed by XRPD.
The vials were capped, sealed with Parafilm® and then covered with foil. The experiments were shaken at room temperature for 3 days. After 3 days all the experiments had remained as slurries. Portions were removed from each one and analyzed by XRPD.

In the case of `CN(C)CCc1c[nH]c2cccc(OC(=O)CCOCCC(=O)Oc3cccc4[nH]cc(CCN(C)C)c34)c12`, the “XRPD patterns after slurrying in 12 solvents compared with input material” value is reported as “XRPD patterns consistent with the XRPD pattern of the input material”.
